One assay deals with human KHK-C (Homo sapiens (Human), UniProt P50053). Description: KHK Biochemical Assay (IC50), ADP-Glo, KHK-C. As to conditions: average of at least two separate assays. In a few lines:
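His-tagged enzyme expressed in BL21 (DE3), Ni-NTA purified. Compounds, serially diluted 1:3 in DMSO, pre-incubated 30 min with enzyme in 50 mM Hepes pH 7.4, 140 mM KCl, 5 mM MgCl2, 0.01% Triton-X, then ATP and fructose added; 4 h at room temperature. ADP formation read by ADP-Glo luminescence.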
A general note: ADP-Glo turns the ADP formed in a reaction into a luminescent signal.

Another assay relates to HepG2 cells. As to the kind of experiment: F1P Cell-Based Assay (EC50), 13C6-fructose-1-phosphate in HepG2 cells (cell culture medium or 50% human plasma). The method, then:
F1P Cell-Based Assay (EC50)
Compounds were serially diluted (1:3) in DMSO. The LabCyte ECHO Acoustic dispenser system was used to pre-spot the assay plates (Greiner, Catalog #781091) with 400 nL (200-fold final dilution in 80 μL assay volume) of compound. 25,000 cells/well HepG2 cells (ATCC Catalog #HB-8065) were plated in a 40 μL volume/well in DMEM medium with 4.5 g/L glucose, 1× Penicillin-Streptomycin-Glutamine, and 10% FBS, using a BioTEK dispenser in a biological hood and incubated overnight at 37° C., 5% CO2, 90% humidity. 40 μL/well serum free assay medium (for F1P assay in cell culture medium), or 40 μL/well 100% human plasma (for F1P assay in 50% human plasma) were then added to the plates on the following day, and incubated for 1 hour at 37° C., 5% CO2, 90% humidity. ^13C6-labelled fructose (Sigma, Catalog #587621) in sterile PBS was added to the plates at a final concentration of 5 mM. The plates were incubated for 2 hours at 37° C., 5% CO2, 90% humidity. The assay was quenched by washing the cells with sterile PBS and adding 60 μL/well of 80% (v/v) methanol, 2 mM ammonium acetate and 2.5 μM Crotonyl-CoA, using a BioTEK washer-dispenser system. The plates were then sealed and stored in the −80° C. freezer until ready for RapidFire readout. ^13C6-fructose-1-phosphate in individual wells was quantified using the Agilent RapidFire High-Throughput MS system in negative mode using a […]. Mobile Phase 1 consisted of 20 mM ammonium acetate with 0.05% acetic acid in 100% methanol. Mobile phase 2 consisted of 5 mM octylamine in water (pH adjusted to 5 using acetic acid). F1P signals in individual wells were normalized by crotonyl CoA internal control.

[1] abbreviates: Homo sapiens, HepG2, HepG2 cells, 50% human plasma, read-out: F1P 50% HP EC50.
[2] abbreviates: Homo sapiens, HepG2, read-out: F1P 10% FBS EC50, HepG2 cells, cell culture medium (10% FBS).
Where [3] appears, read: HepG2 cells, 50% human plasma, read-out: F1P 50% HP EC50.
Where [4] appears, read: read-out: F1P 10% FBS EC50, HepG2 cells, cell culture medium (10% FBS).

Where two headings read alike, the source gives them in different places.

human KHK-C, sequence (P50053 whole entry): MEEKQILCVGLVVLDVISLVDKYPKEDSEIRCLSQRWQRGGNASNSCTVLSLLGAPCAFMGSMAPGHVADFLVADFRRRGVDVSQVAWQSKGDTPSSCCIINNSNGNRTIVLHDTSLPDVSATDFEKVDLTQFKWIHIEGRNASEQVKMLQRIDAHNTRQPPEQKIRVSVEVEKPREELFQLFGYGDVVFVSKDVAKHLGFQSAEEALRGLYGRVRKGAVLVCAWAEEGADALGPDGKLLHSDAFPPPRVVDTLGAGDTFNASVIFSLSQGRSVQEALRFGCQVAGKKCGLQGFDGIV

One may read the IC50 as the concentration that gives 50% inhibition. A lower IC50 goes with greater potency. Usually EC50 stands for the concentration at which the effect is half-maximal. The compound `C[C@H]1CCN1c1nc(-c2ccc3c(c2)[C@@H](NS(C)(=O)=O)CC3)c2c(n1)C(F)(F)CC2` (single isomer, unassigned) [Example 609] had an IC50 against human KHK-C of 0.001 µM. Also, the results for the EC50 in the assay with HepG2 cells (setting [1]) and in the assay with HepG2 cells (setting [2]) were 0.0547 µM and 0.0107 µM, respectively.
Regarding `C[C@H]1[C@H](O)CN1c1nc(-c2ccc3c(c2)[C@H](NS(C)(=O)=O)CO3)c2c(n1)C(F)(F)CC2` (single isomer, unassigned) [Example 615], the midpoint of inhibition against human KHK-C, the IC50, lay at 0.0035 µM. Further, the concentration for a half-maximal effect (EC50) was found to be 0.0307 µM in the assay with HepG2 cells (setting [3]) and 0.0161 µM in the assay on HepG2 cells (setting [4]).
The corresponding values for `C[C@H]1[C@H](O)CN1c1nc(-c2cccc([C@@H]3CCS(=O)(=O)N3)c2)c2c(n1)C(F)(F)CC2` (single isomer, unassigned) [Example 618] are 0.0112 µM, 0.024 µM and 0.0181 µM.
On to `C[C@H]1[C@H](O)CN1c1nc(-c2ccc3c(c2)[C@@H](NS(C)(=O)=O)CC3)c2c(n1)C(F)(F)CC2` (single isomer, unassigned) [Example 622], for which, at human KHK-C, 0.0015 µM corresponded to half-maximal inhibition (IC50). Further, the EC50 with HepG2 cells (setting [1]) turned out to be 0.0461 µM; in the assay with HepG2 cells (setting [2]), 0.0088 µM.
The compound `C[C@H]1[C@H](O)CN1c1nc(-c2ccc3c(c2)[C@H](NS(C)(=O)=O)CC3)c2c(n1)C(F)(F)CC2` (single isomer, unassigned) [Example 623] had an IC50 against human KHK-C of 0.0013 µM. The values for the EC50 in the assay with HepG2 cells (setting [1]) and with HepG2 cells (setting [2]) were 0.0348 µM and 0.0068 µM, respectively.
In turn, `C[C@H]1[C@H](O)CN1c1nc(-c2ccc3c(c2)C(C)(C)C[C@H]3NS(C)(=O)=O)c2c(n1)C(F)(F)CC2` (single isomer, unassigned) [Example 631] showed a concentration for half-maximal inhibition (IC50) at human KHK-C of 0.0107 µM. For the same compound, the figures for the EC50 in the assay with HepG2 cells (setting [1]) and in the assay with HepG2 cells (setting [2]) were more than 0.5 µM and 0.0789 µM, respectively.
For `C[C@H]1[C@H](O)CN1c1nc(-c2ccc3c(c2)S(=O)(=O)C[C@@H]3N)c2c(n1)C(F)(F)CC2` (single isomer, unassigned) [Example 662], in that order: 0.0031 µM, 0.0172 µM and 0.0226 µM.
The corresponding values for `C[C@H]1[C@H](O)CN1c1nc(-c2ccc([C@@H](N)CC#N)cc2)c2c(n1)C(F)(F)CC2` (single isomer, unassigned) [Example 779] are 0.0071 µM, 0.0377 µM and 0.0475 µM.
For the compound `NC1(c2ccc(-c3nc(N4CC(F)(F)[C@H]4CO)nc4c3CCC4(F)F)cc2)CS(=O)(=O)C1` (single isomer, unassigned) [Example 783], the IC50 against human KHK-C stood at 0.0987 µM. Also, the EC50 in the assay with HepG2 cells (setting [1]) and in the assay on HepG2 cells (setting [2]) was more than 0.5 µM in each case.
In the case of `NC1(c2ccc(-c3nc(N4CC(F)(F)[C@@H]4CO)nc4c3CCC4(F)F)cc2)CS(=O)(=O)C1` (single isomer, unassigned) [Example 784], the IC50 on human KHK-C was 0.0079 µM. The EC50 amounted to 0.0919 µM in the assay on HepG2 cells (setting [1]) and 0.119 µM in the assay on HepG2 cells (setting [2]).
Compound `C[C@H]1[C@H](O)CN1c1nc(-c2cc(F)c3c(c2)OC[C@H]3NS(C)(=O)=O)c2c(n1)C(F)(F)CC2` (single isomer, unassigned) [Example 812] displayed an IC50 against human KHK-C (ADP-Glo) of 0.0007 µM. Further, the figures for the EC50 in the assay with HepG2 cells (setting [1]) and in the assay on HepG2 cells (setting [2]) were 0.0403 µM and 0.0112 µM, respectively.
Compound `C[C@H]1[C@H](O)CN1c1nc(-c2ccc3c(c2)CC[C@H]3NS(C)(=O)=O)c2c(n1)C(F)(F)CC2` [Example 473, N—((R)-5-(7,7-difluoro-2-((2S,3R)-3-hydroxy-2-methylazetidin-1-yl)-6,7-dihydro-5H-cyclopenta[d]pyrimidin-4-yl)-2,3-dihydro-1H-inden-1-yl)methanesulfonamide] gave an IC50 against human KHK-C of 0.0075 µM. The EC50 in the assay on HepG2 cells (setting [1]) amounted to 0.111 µM; in the assay on HepG2 cells (setting [2]), 0.0635 µM.
As for `C[C@H]1[C@H](O)CN1c1nc(-c2ccc3c(c2)CCC32COC(=O)N2)c2c(n1)C(F)(F)CC2` (stereo partly drawn) [Example 474, 5-(7,7-difluoro-2-((2S,3R)-3-hydroxy-2-methylazetidin-1-yl)-6,7-dihydro-5H-cyclopenta[d]pyrimidin-4-yl)-2,3-dihydrospiro[indene-1,4′-oxazolidin]-2′-one], the midpoint of inhibition at human KHK-C, the IC50, lay at 0.001 µM. Besides, the figures for the EC50 in the assay on HepG2 cells (setting [1]) and with HepG2 cells (setting [2]) were 0.0451 µM and 0.0225 µM, respectively.

The values above are taken from patent US12410160B2 (Gilead Sciences, Inc., priority 2021, dated 2025).
